We go through one compound from patent US20040170685A1, “Bioactive stents and methods for use thereof” (MediVas, LLC, priority 2003, published 2004).

In the test the test system is human aortic smooth muscle cells (SMC). Description: Adhesion and proliferation of smooth muscle cells on gelatin coated culture plates, microscopic observation. The note with it: bioagent 100? m. Format: cell-based. An excerpt: This Example illustrates the effect of different concentrations of bioactive agents on adhesion and proliferation of epithelial cells (EC) and smooth muscle cells (SMC) on gelatin coated surfaces.
Human Coronary artery endothelial cells (EC) plated on gelatin coated culture plates were co-cultured with EC special media containing one of the bioactive agents shown in Table 1 below in the various concentrations shown.
Twenty four hours later the cells were observed microscopically, stained with trypan blue and counted. The results of the microscopic observation of cell morphology and confluency of culturing the EC in the presence of the Bioagents tested are summarized in Table 2 below. The effect of the various bioagents on EC adhesion and proliferation is shown graphically in FIG. 2.
Effect of different concentrations of the bioagents listed above in Table 1 was also tested using human aortic smooth muscle cells (SMC) under similar conditions as described for EC. The results of the bioagents on adhesion and proliferation of SMC plated on gelatin coated culture plates are summarized in Table 3 below and shown graphically in FIG. 3.

For the compound `CCCCCCCCCCCCC/C=C/[C@@H](O)[C@@H](N)COP(=O)(O)O` [S1P, Sphingosine 1-Phosphate], the “Microscopic observation for the SMC morphology and Confluency” value is on record as 100% cells died.
